Test results reported in patent US10668039B2, “Methods for treatment of adenoid cystic carcinoma” (THE CHILDREN'S MEDICAL CENTER CORPORATION, priority 2016, dated 2020).
“Also recorded” adds a separate entry of the source.

Columns and labels:
[1] = tested on: RARα; experiment: Western blot of ACC primagrafts, RARα; type: in vivo, human; details: long-term ACC x11 and short-term (3 days) ACC x5M1 primagrafts
Text: (§1) Primagraft experiments: For in vivo drug testing, ACC tumor fragments from host animals were implanted subcutaneously into the flank of nude mice (CRL: ATH/NU). Once tumors reached 125-250 mm3, mice were randomized to receive vehicle or drug diluted in 10:90 DMSO:10% hydroxypropyl-beta-cyclodextrin orally until controls reached a tumor volume endpoint of 1-2 cm3 (4-9 mice per group: x5M1 and x6, 4 treated vs. 9 vehicle controls; x9, 4 treated vs. 5 vehicle controls; x11, 5 treated vs. 8 vehicle controls). Mice were treated with ATRA (ACC x6 and x11: 4 mg/mL, 0.2 mL flat dose; ACC×9: 3 mg/mL, 0.2 mL flat dose) or isotretinoin (30 mg/mL, 0.2 mL flat dose). Tumor growth was monitored and mice weighed twice weekly and studies ended when final group reached tumor volume endpoint. No statistical methods were employed to determine the sample size, and no blinding of investigators was performed. […]
(§2) Western blots: ACC x11 (from long-term tumor growth inhibition studies) and ACC x5M1 (from short-term kinetics studies) primagrafts were mechanically homogenized in RIPA lysis buffer (Thermo Scientific) supplemented by addition of complete protease inhibitor cocktail (Roche). Protein concentrations were determined by DC protein assay (BioRad).

[2] = tested on: mpeg1:mCherry positive cells; experiment: Confocal imaging of CHT, mpeg1:mCherry positive cells; type: in vivo, zebrafish; details: 10 μM, treated 48-72 hpf, imaged at 72 hpf
Description: (§3) Confocal imaging: Double transgenic c-myb:GFP; lyz:dsRed or c-myb:GFP; mpeg1:mCherry embryos from the same clutch were treated between 48-72 hpf (n=4 biological replicates per treatment group) with 10 μM ATRA diluted in E3. Live 72 hpf embryos were embedded in 0.8% low-melting point agarose containing 0.04 mg/mL Tricaine and imaged on a Nikon Eclipe Ti microscope with 20× Plan-Apo DIC N.A. 0.75. CHT cells were counted in Z-stack image projections processed on Imaris software (Bitplane).

[3] = tested on: H3K27ac; experiment: ChIP-seq of short-term ACC x9 primagrafts, H3K27ac; type: in vivo, human; details: 3 days
Text: as §1
(§4) All ChIP-Seq datasets were aligned to UCSC build version hg19 of the human genome using Bowtie2 (version 2.2.1) with the following parameters: -end-to-end, —NO, -L20. […] ChIP-seq enrichment was determined as described previously in a 5 kb region (as counts per million) centered on the enriched peak regions (n=1,868) of the given MYB datasets. […]

[4] = tested on: MYB; experiment: Western blot of ACC primagrafts, MYB; type: in vivo, human; details: long-term ACC x11 and short-term (3 days) ACC x5M1 primagrafts
Text: as §1, §2

[5] = tested on: c-myb; experiment: qPCR of sorted c-myb:GFP zebrafish embryo cells; type: cell-based; details: sorted c-myb:GFP cells from 72 hpf embryos, 1 μM, 6 hours
Description: RA dose response experiments were plated similarly in LDF medium with the appropriate RA concentration. Sorted c-myb:GFP+ cells were collected from 72 hpf transgenic embryos that were homogenized: embryos were finely chopped and dissociated using Liberase (Roche), cell suspensions were filtered, and 58,000 GFP+ live cells were collected using a FACS Aria cell sorter (BD Biosciences). Cells were cultured for 6 hours in LDF medium, and then collected for qPCR.
Quantitative PCR: Total RNA from cells was extracted using Qiagen RNeasy Mini Kit, and random primed cDNA was generated (Invitrogen, SuperScript III First-Strand Synthesis System). The SsoFast EvaGreen (Biorad) method was used to quantify cDNAs of interest, which are represented as the fold change in transcript level. The amount of cDNA starting material for each sample was normalized in relation to species-specific β-actin expression for zebrafish samples, and both gapdh and β-actin expression for human samples. The primer sequences used were zebrafish myb: forward, 5′-[…]-3′ (SEQ ID No:1), reverse, 5′-[…]-3′ (SEQ ID No:2); zebrafish β-actin: forward, 5′-[…]-3′ (SEQ ID No:3), reverse, 5′-[…]-3′ (SEQ ID No:4); human myb: forward, 5′-[…]-3′ (SEQ ID No:5), reverse, 5′-[…]-3′ (SEQ ID No:6); human gapdh: forward, 5′-[…]-3′ (SEQ ID No:7), reverse, 5′-[…]-3′ (SEQ ID No:8); human β-actin: forward, 5′-[…]-3′ (SEQ ID No:9), reverse, 5′-[…]-3′ (SEQ ID No:10).
Zebrafish quantitative PCR analysis: Stage-matched 72 hpf c-myb:GFP transgenic embryos were finely chopped and dissociated using Liberase (Roche). GFP+ cells were collected using a FACS Aria cell sorter (BD Biosciences). Sorted cells were resuspended in zebrafish blastomere media and plated with 1 μM retinoic acid agonists for 6 hours. Cells were then collected and RNA was isolated using the RNeasy Micro Plus Kit (Qiagen) as per the manufacturer's instructions. cDNA was synthesized using the SuperScript III Kit (Life Technologies). Quantitative PCR was performed in triplicate on a BioRad iQ5 real-time PCR machine using Ssofast EvaGreen Supermix (BioRad). Samples were normalized to β-actin gene. Zebrafish primers used (forward and reverse respectively): actin, 5′-[…]-3′ (SEQ ID No:3) and 5′-[…] -3′ (SEQ ID No:4); c-myb, 5′-[…]-3′ (SEQ ID No:1) and 5′-[…]-3′ (SEQ ID No:2); mpx, 5′-[…]-3′ (SEQ ID No:11) and 5′-[…]-3′ (SEQ ID No:12); GFP, 5′-[…]-3′ (SEQ ID No:13) and 5′-[…]-3′ (SEQ ID No:14).

[6] = tested on: MYB; experiment: ChIP-seq of short-term ACC x9 primagrafts, MYB binding; type: in vivo, human; details: 3 days
Text: as §1, §4

[7] = tested on: lyz:dsRed positive cells; experiment: Confocal imaging of CHT, lyz:dsRed positive cells; type: in vivo, zebrafish; details: 10 μM, treated 48-72 hpf, imaged at 72 hpf
Description: as §3

Row | Compound | RARα protein expression [1] | mpeg1:mCherry+ cells in the CHT [2] | H3K27ac at translocated enhancer sites [3] | MYB protein expression (wildtype and fusion) [4] | endogenous myb levels by qPCR [5] | enrichment among MYB-bound regions genome-wide [6] | lyz:dsRed+ cells in the CHT [7]
1 | CC(C=CC1=C(C)CCCC1(C)C)=CC=C/C(C)=C/C(=O)O [ATRA, (E)-3,7-dimethyl-9-(2,6,6-trimethyl-1-cyclo-hexen-1-yl)-2,4,6,8-nonatetraenoic acid] | increased | no significant difference; also recorded: no significant effect | decrease | decreases | significantly downregulate | reduced enrichment | no significant difference; also recorded: no significant effect
2 | CC1=C(/C=C/C(C)=C/C=C/C(C)=C/C(=O)Nc2ccc(O)cc2)C(C)(C)CCC1 [Fenretinide, retinoic acid p-hydroxyanilide] | – | – | – | – | significantly downregulate | – | –
3 | CC1=C(/C=C/C(C)=C/C=C/C(C)=C\C(=O)O)C(C)(C)CCC1 [Isotretinoin, 13-cis-retinoic acid] | – | – | – | – | significantly downregulate | – | –
